{"source": "patent US20190262294A1", "about": "“MODIFIER SYSTEM FOR COMPOSITIONS CONTAINING LAYERED DOUBLE HYDROXIDE” (OXFORD PHARMASCIENCE LIMITED, priority 2016, published 2019)", "test": "solvent system method: total amount of ibuprofen released from the LDH", "format": "physicochemical", "details": "200 mg dose of ibuprofen; 0.05M HCl 50 mL, 15 min", "method": "This method determines the total amount of ibuprofen that is released from the LDH matrix.\nA sample is then removed for analysis to determine the total amount of ibuprofen (dissolved and undissolved) which is released into the HCl solution. Further dilution is conducted as required.\nSamples of the of the reaction solution were removed and used to determine the amount of ibuprofen released by each of the modifier systems using both the solvent system method and the solubility method described above."}
{"smiles": "CC(C)Cc1ccc(C(C)C(=O)O)cc1", "note": "(stereo not shown) [Ibuprofen free acid]", "values": [{"measurement": "TOTAL AMOUNT OF IBUPROFEN RELEASED FROM THE LDH AS DETERMINED USING THE SOLVENT METHOD", "result": 95, "unit": "%"}]}
